For 14 molecules, AD50, Activity and IC50 results are on record in ChEMBL document CHEMBL1157604 (J Med Chem, 2010).

Each structure is given as a SMILES string. The source made the active and inactive calls. The rule behind the calls is not given here.

For assay [1], the species on record is Mus musculus. The assay is described as follows: Effect on behavioral activity in ICR mouse assessed as inhibition of nicotine-induced locomotory response by locomotor assay. Format: functional.
The species entered for assay [2] is Mus musculus. The assay is described as follows: Effect on body temperature in ICR mouse assessed as inhibition of nicotine-induced hypothermic response. In kind it is functional.
The target in assay [3] is Neuronal acetylcholine receptor; alpha4/beta4 (Homo sapiens) (UniProt P30926+P43681). The assay is described as follows: Intrinsic activity at human alpha4beta4 nAChR receptor expressed in human SH-SY5Y cells assessed as 86Rb+ efflux at 5 to 100 uM by liquid scintillation counting. Format: cell-based.
For assay [4], the target named is Sodium-dependent noradrenaline transporter (Homo sapiens, UniProt P23975). The assay is described as follows: Inhibition of [3H]norepinephrine uptake at human NET expressed in HEK293 cells. In kind it is cell-based.
Chain of Sodium-dependent noradrenaline transporter (P23975 whole entry): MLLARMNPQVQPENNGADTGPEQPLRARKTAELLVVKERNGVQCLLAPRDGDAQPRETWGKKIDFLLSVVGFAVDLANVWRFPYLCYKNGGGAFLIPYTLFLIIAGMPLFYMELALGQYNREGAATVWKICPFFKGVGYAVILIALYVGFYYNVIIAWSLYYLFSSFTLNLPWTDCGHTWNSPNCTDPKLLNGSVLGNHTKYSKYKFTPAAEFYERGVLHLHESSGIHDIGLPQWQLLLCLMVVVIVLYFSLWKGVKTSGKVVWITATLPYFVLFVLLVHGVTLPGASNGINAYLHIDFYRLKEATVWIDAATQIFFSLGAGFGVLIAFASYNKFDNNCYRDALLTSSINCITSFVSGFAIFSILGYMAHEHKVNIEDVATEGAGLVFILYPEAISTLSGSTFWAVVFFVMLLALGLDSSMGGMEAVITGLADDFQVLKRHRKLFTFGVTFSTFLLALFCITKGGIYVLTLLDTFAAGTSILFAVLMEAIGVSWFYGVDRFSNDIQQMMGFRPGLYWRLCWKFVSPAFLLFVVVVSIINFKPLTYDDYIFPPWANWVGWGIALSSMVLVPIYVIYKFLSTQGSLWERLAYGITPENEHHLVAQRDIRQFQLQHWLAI
For assay [5], the target named is Acetylcholine receptor; alpha1/beta1/delta/gamma (Homo sapiens) (UniProt P02708+P07510+P11230+Q07001). The assay is described as follows: Intrinsic activity at alpha-1-beta-1-gamma-delta nAChR receptor expressed in human TE671/RD cells assessed as 86Rb+ efflux at 5 to 100 uM by liquid scintillation counting. In kind it is cell-based.
Assay [6] has as its target Neuronal acetylcholine receptor; alpha4/beta2 (Homo sapiens) (UniProt P17787+P43681). Put plainly: Intrinsic activity at human alpha4beta2 nAChR receptor expressed in human SH-SY5Y cells assessed as 86Rb+ efflux at 5 to 100 uM by liquid scintillation counting. Format: cell-based.
For assay [7], the target named is Sodium-dependent serotonin transporter (Homo sapiens, UniProt P31645). Put plainly: Inhibition of [3H]serotonin uptake at human SERT expressed in HEK293 cells. Format: cell-based.
Chain of Sodium-dependent serotonin transporter (P31645 whole entry): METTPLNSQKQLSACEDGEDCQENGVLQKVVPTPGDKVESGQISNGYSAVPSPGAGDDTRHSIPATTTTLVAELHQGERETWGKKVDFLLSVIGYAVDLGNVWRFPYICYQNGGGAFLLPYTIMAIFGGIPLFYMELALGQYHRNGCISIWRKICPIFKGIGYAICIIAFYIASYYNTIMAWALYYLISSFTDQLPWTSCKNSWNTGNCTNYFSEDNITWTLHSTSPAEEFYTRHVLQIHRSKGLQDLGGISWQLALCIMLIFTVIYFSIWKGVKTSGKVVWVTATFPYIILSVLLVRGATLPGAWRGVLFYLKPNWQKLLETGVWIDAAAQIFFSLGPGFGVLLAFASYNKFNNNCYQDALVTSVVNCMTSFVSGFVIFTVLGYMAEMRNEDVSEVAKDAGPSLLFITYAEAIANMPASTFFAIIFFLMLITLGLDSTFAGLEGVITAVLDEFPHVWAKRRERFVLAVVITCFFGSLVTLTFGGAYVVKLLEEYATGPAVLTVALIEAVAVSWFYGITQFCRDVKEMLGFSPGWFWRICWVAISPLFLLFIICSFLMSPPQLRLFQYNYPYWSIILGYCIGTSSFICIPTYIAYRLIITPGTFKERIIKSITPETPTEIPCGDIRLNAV
Assay [8] addresses Sodium-dependent dopamine transporter (Homo sapiens, UniProt Q01959). Put plainly: Inhibition of [3H]dopamine uptake at human DAT expressed in HEK293 cells. Format: cell-based.
For assay [9], the species on record is Mus musculus. The assay is described as follows: Antinociceptive activity in ICR mouse assessed as inhibition of nicotine-induced response by hotplate test. In kind it is functional.
The species named for assay [10] is Mus musculus. The assay is described as follows: Antinociceptive activity in ICR mouse D'Amour and Smith model of pain assessed as inhibition of nicotine-induced response by tail-flick test. Format: functional. (Hot-plate and tail-flick tests time the reaction to a heat stimulus.)
For assay [11], the target named is Neuronal acetylcholine receptor; alpha3/beta4 (Homo sapiens) (UniProt P30926+P32297). The assay is described as follows: Intrinsic activity at alpha3beta4 nAChR receptor in human SH-SY5Y cells assessed as 86Rb+ efflux at 5 to 100 uM by liquid scintillation counting. Format: cell-based.

Chain of Sodium-dependent dopamine transporter (Q01959 whole entry): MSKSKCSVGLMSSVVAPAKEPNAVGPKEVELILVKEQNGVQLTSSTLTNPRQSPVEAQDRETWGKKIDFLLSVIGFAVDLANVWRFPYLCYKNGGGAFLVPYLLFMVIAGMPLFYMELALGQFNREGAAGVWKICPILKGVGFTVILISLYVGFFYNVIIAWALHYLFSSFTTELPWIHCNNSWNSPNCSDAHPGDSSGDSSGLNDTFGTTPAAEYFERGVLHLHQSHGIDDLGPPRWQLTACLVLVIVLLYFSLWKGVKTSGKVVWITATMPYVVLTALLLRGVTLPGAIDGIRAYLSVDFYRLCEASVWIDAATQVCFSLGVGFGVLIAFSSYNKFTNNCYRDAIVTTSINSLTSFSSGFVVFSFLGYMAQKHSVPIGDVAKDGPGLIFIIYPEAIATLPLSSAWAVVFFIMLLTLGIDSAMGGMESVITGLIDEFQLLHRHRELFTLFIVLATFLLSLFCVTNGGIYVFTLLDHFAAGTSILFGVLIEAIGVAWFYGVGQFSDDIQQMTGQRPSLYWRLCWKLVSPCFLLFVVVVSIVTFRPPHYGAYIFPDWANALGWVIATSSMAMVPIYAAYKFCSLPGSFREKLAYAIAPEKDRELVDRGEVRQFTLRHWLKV

Turning to `CC(NC(C)(C)C)C(=O)c1ccc(Cl)c(Cl)c1` (stereo not given), the AD50 entry in the assay filed under Mus musculus [1], in the assay listed under Mus musculus [2] and in the assay filed under Mus musculus [9] was “inactive” throughout. For the same molecule, the result in assay [3], in assay [5], in assay [6] and in assay [11] was inactive. The IC50 in [4] was 1670 nM; in assay [7], 8800 nM; in assay [8], 463 nM. In addition, the AD50 in the assay filed under Mus musculus [10] was 0.28 mg/kg.
For `Cc1cccc(C(=O)C(C)NC2CCCC2)c1` (stereo not given), the AD50 result in the assay filed under Mus musculus [1], in the assay filed under Mus musculus [2], in the assay listed under Mus musculus [9] and in the assay filed under Mus musculus [10] was “inactive” throughout. Moreover, the outcome in [3], in [5], in assay [6] and in assay [11] was inactive. Moreover, the figures for the IC50 in assay [4] and in assay [8] were 8700 nM and 842 nM, respectively.
Turning to `COc1cccc(C(=O)C(C)NC2CCCC2)c1` (stereo not given), the AD50 result in the assay listed under Mus musculus [1], in the assay filed under Mus musculus [2], in the assay listed under Mus musculus [9] and in the assay listed under Mus musculus [10] was “inactive” throughout. The outcome in [3], in [5], in assay [6] and in assay [11] was inactive. The half-maximal inhibitory concentration (IC50) in assay [4] was 8200 nM; in assay [7], 6900 nM; in [8], 2270 nM.
Turning to `CC(NC(C)(C)C)C(=O)c1ccc(F)c(F)c1` (stereo not given), the AD50 result in the assay filed under Mus musculus [1], in the assay listed under Mus musculus [2] and in the assay filed under Mus musculus [9] was “inactive” each time. Moreover, the result in assay [3], in assay [5], in assay [6] and in assay [11] was inactive. Moreover, the figures for the IC50 in assay [4] and in assay [8] were 6480 nM and 7980 nM, respectively. Moreover, the AD50 in the assay filed under Mus musculus [10] was determined as 0.05 mg/kg.
For the molecule `CC(NC(C)(C)C)C(=O)c1ccc(Cl)cc1` (stereo not given), the AD50 in the assay listed under Mus musculus [1] came out at 31 mg/kg; in the assay listed under Mus musculus [2] it was 32 mg/kg; in the assay listed under Mus musculus [10], 0.43 mg/kg. Further, the outcome in assay [3], in [5], in assay [6] and in assay [11] was inactive. Besides, the results for the IC50 in assay [4], in [7] and in assay [8] were 2070 nM, 9800 nM and 1090 nM, respectively. The AD50 result in the assay listed under Mus musculus [9] was “inactive”.
On to `CCCC(NC(C)(C)C)C(=O)c1ccc(Cl)c(Cl)c1` (stereo not given), for which the AD50 result in the assay listed under Mus musculus [1] was “inactive”. Besides, the AD50 in the assay filed under Mus musculus [2] came out at 17.5 mg/kg; in the assay filed under Mus musculus [9], 15 mg/kg; in the assay listed under Mus musculus [10], 0.13 mg/kg. Besides, the outcome in assay [3], in assay [5], in assay [6] and in assay [11] was inactive. Moreover, the results for the IC50 in assay [7] and in assay [8] were 2300 nM and 31 nM, respectively.
For the molecule `CC(C(=O)c1cccc(Cl)c1)N(C)C` (stereo not given), the AD50 result in the assay listed under Mus musculus [1], in the assay filed under Mus musculus [2] and in the assay filed under Mus musculus [9] was “inactive” each time. The outcome in assay [3], in assay [5], in assay [6] and in assay [11] was inactive. Further, the half-inhibitory concentration (IC50) in assay [4] is 1520 nM; in assay [8] it was 1750 nM. Moreover, the AD50 in the assay filed under Mus musculus [10] was found to be 5.2 mg/kg.
With `CC(NC(C)(C)C)C(=O)c1ccc(Br)cc1` (stereo not given), the AD50 result in the assay filed under Mus musculus [1] is “inactive”. The AD50 in the assay listed under Mus musculus [2] came to 29 mg/kg; in the assay listed under Mus musculus [9], 23.5 mg/kg; in the assay listed under Mus musculus [10] it was 0.15 mg/kg. Also, the outcome in assay [3], in assay [5], in assay [6] and in assay [11] was inactive. The values for the IC50 in [4], in [7] and in [8] were 2540 nM, 4510 nM and 689 nM, respectively.
Turning to `CC(NC1CCCC1)C(=O)c1cccc(F)c1` (stereo not given), the AD50 result in the assay listed under Mus musculus [1], in the assay filed under Mus musculus [2], in the assay filed under Mus musculus [9] and in the assay listed under Mus musculus [10] was “inactive” each time. Further, the outcome in assay [3], in assay [5], in assay [6] and in assay [11] was inactive. In addition, the results for the half-maximal inhibitory concentration (IC50) in assay [4] and in assay [8] were 2850 nM and 693 nM, respectively.
On to `CC(NC(C)(C)C)C(=O)c1cccc(F)c1` (stereo not given), for which the AD50 entry in the assay listed under Mus musculus [1], in the assay filed under Mus musculus [2], in the assay listed under Mus musculus [9] and in the assay filed under Mus musculus [10] was “inactive” each time. For the same molecule, the outcome in [3], in assay [5], in [6] and in [11] was inactive. Also, the IC50 came out at 6500 nM in assay [4] and 2320 nM in assay [8].
As to `CC(NC1CCCC1)C(=O)c1cccc(Br)c1` (stereo not given), the AD50 result in the assay listed under Mus musculus [1], in the assay listed under Mus musculus [2], in the assay listed under Mus musculus [9] and in the assay listed under Mus musculus [10] was “inactive” each time. For the same molecule, the result in assay [3], in assay [5], in assay [6] and in [11] was inactive. Further, the results for the IC50 in assay [4] and in assay [8] were 2530 nM and 845 nM, respectively.
As to `CCCC(NC(C)(C)C)C(=O)c1cccc(Cl)c1` (stereo not given), the AD50 result in the assay filed under Mus musculus [1], in the assay filed under Mus musculus [2] and in the assay filed under Mus musculus [9] was “inactive” each time. In addition, the result in [3], in [5], in assay [6] and in assay [11] was inactive. In addition, the IC50 turned out to be 370 nM in assay [4] and 56 nM in assay [8]. The AD50 in the assay listed under Mus musculus [10] came out at 10 mg/kg.
As for `CCC(NC(C)(C)C)C(=O)c1ccc(Cl)c(Cl)c1` (stereo not given), the AD50 result in the assay listed under Mus musculus [1], in the assay listed under Mus musculus [2] and in the assay listed under Mus musculus [9] was “inactive” each time. Besides, the outcome in assay [3], in assay [5], in assay [6] and in assay [11] was inactive. Also, the results for the IC50 in [4], in assay [7] and in assay [8] were 389 nM, 1090 nM and 118 nM, respectively. In the assay filed under Mus musculus [10], the AD50 was 0.05 mg/kg.
As to `CC(C(=O)c1cccc(Cl)c1)N1CCCCC1` (stereo not given), the AD50 entry in the assay filed under Mus musculus [1], in the assay listed under Mus musculus [2] and in the assay listed under Mus musculus [9] was “inactive” in each case. Further, the result in assay [3], in assay [5], in assay [6] and in assay [11] was inactive. The IC50 came to 2520 nM in [4] and 852 nM in [8]. In addition, the AD50 in the assay listed under Mus musculus [10] was found to be 0.05 mg/kg.

For orientation: IC50 means the midpoint of a concentration-inhibition curve. Low readings indicate higher potency, high ones lower potency.
